In this assay the target is T1, recombinant human NK3 receptor (Homo sapiens, UniProt P29371).
T1 construct: expressed in transfected cells; host or cells: HEK293 cells, transient expression; membrane preparation
T1 sequence (P29371 1-465): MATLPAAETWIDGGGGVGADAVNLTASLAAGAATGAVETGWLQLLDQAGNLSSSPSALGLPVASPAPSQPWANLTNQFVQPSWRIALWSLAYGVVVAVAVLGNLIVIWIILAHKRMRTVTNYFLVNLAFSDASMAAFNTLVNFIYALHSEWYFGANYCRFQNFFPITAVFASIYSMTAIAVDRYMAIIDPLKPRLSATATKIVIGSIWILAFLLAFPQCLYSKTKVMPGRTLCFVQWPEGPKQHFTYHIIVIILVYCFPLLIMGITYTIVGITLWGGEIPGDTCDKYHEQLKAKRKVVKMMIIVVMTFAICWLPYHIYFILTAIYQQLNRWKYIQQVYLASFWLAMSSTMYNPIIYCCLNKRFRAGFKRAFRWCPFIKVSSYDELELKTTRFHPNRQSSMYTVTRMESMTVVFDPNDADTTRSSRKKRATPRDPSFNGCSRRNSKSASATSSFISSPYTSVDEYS
Nature of the assay: [3H]SR142801 competition binding assay. Summed up:
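Membranes from HEK293 cells transiently expressing the receptor (5 μg protein/well) incubated 75 min at RT with [3H]SR142801 at its KD and 10 compound concentrations (0.0003-10 μM), in pH 7.4 Tris buffer with MnCl2, phosphoramidon and BSA. Nonspecific binding defined with 10 μM SB222200; bound radioactivity counted after filtration. Ki from IC50 via Cheng-Prusoff; duplicates.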

[1] abbreviates: [3H]SR142801, membranes of HEK293 cells transiently expressing recombinant human NK3 receptor, read-out: hNK3 Ki.
Setting [2] is: representative compounds, [3H]SR142801, HEK293 membranes, human NK3 receptor, read-out: Ki NK3 h.

Structures are written as SMILES. Like-named read-outs stand apart in the source and are kept apart here.

The text below walks through data of US20110021565A1, “PIPERIDINE DERIVATIVES AS NK3 ANTAGONISTS” (priority 2007, published 2011).

Consider `CC(=O)N(C)C1CCN(CCC(C)(C(=O)N(C)Cc2ccc(C(F)(F)F)cc2)c2ccc(Cl)c(Cl)c2)CC1` (centres unmarked) [Example 106, 4-[4-(Acetyl-methyl-amino)-piperidin-1-yl]-2-(3,4-dichloro-phenyl)-2,N-dimethyl-N-(4-trifluoromethyl-benzyl)-butyramide], for which the inhibitory constant (Ki) under setting [1] was 5.1 nM and the Ki under setting [2] was determined as 5.1 nM.

Turning to `COCCN(C(C)=O)C1CCN(CCC(C)(C(=O)N[C@@H](CO)c2ccc(F)cc2)c2ccc(Cl)c(Cl)c2)CC1` (single isomer, unassigned) [Example 150, 4-{4-[Acetyl-(2-methoxy-ethyl)-amino]-piperidin-1-yl}-2-(3,4-dichloro-phenyl)-N-[(R)-1-(4-fluoro-phenyl)-2-hydroxy-ethyl]-2-(R or S) methyl-butyramide], the Ki runs as follows: under setting [1], 1.7 nM; under setting [2], 1.7 nM.

On to `CCN(C1CCN(CCC(C)(C(=O)N(C)Cc2ccc(C)cc2)c2ccc(Cl)c(Cl)c2)CC1)S(C)(=O)=O` (centres unmarked) [Example 77, 2-(3,4-Dichloro-phenyl)-4-[4-(ethyl-methanesulfonyl-amino)-piperidin-1-yl]-2,N-dimethyl-N-(4-methyl-benzyl)-butyramide], for which the Ki reads like this: under setting [1], 3.1 nM; under setting [2], 3.1 nM.

Turning to `CC(=O)N(C1CC1)C1CCN(CCC(C)(C(=O)N[C@@H](CO)c2ccc(Cl)cc2)c2ccc(Cl)c(Cl)c2)CC1` (single isomer, unassigned; diastereoisomer 2) [Example 143, 4-[4-(Acetyl-cyclopropyl-amino)-piperidin-1-yl]-N-[1-(4-chloro-phenyl)-2-hydroxy-ethyl]-2-(3,4-dichloro-phenyl)-2-methyl-butyramide (diastereoisomer 2)], the Ki under setting [1] worked out at 87.7 nM.

`CN(Cc1ccc(C(F)(F)F)c(F)c1)C(=O)C(F)(CCN1CCC(N(C)S(C)(=O)=O)CC1)c1ccc(Cl)c(Cl)c1` (centres unmarked) [Example 53, 2-(3,4-Dichloro-phenyl)-2-fluoro-N-(3-fluoro-4-trifluoromethyl-benzyl)-4-[4-(methanesulfonyl-methyl-amino)-piperidin-1-yl]-N-methyl-butyramide]: under setting [1], the inhibition constant (Ki) stood at 18.3 nM.

For `CC(CCN1CCC(NS(C)(=O)=O)CC1)(C(=O)NCc1ccc(OC(F)(F)F)cc1)c1ccc(Cl)c(Cl)c1` (centres unmarked) [Example 23, 2-(3,4-Dichloro-phenyl)-4-(4-methanesulfonyl-amino-piperidin-1-yl)-2-methyl-N-(4-trifluoromethoxy-benzyl)-butyramide], the Ki under setting [1] was determined as 140 nM.

In the case of `CN(Cc1ccc(Cl)cc1)C(=O)C(CCN1CCC(N2CCCC2=O)CC1)c1ccc(F)cc1` (centres unmarked) [Example 111, N-(4-Chloro-benzyl)-2-(4-fluoro-phenyl)-N-methyl-4-[4-(2-oxo-pyrrolidin-1-yl)-piperidin-1-yl]-butyramide], the Ki under setting [1] turned out to be 408 nM.

With `CN(Cc1ccc(Cl)c(C(F)(F)F)c1)C(=O)C(CCN1CCC(NS(C)(=O)=O)CC1)c1ccc(Cl)c(Cl)c1` (centres unmarked) [Example 35, N-(4-Chloro-3-trifluoromethyl-benzyl)-2-(3,4-dichloro-phenyl)-4-(4-methanesulfonyl-amino-piperidin-1-yl)-N-methyl-butyramide], under setting [1], the Ki stood at 149 nM.

`CN(Cc1ccc(C(F)(F)F)cc1)C(=O)C(C)(CCN1CCC(NS(C)(=O)=O)CC1)c1ccc(Cl)c(Cl)c1` (centres unmarked) [Example 25, 2-(3,4-Dichloro-phenyl)-4-(4-methanesulfonyl-amino-piperidin-1-yl)-2,N-dimethyl-N-(4-trifluoromethyl-benzyl)-butyramide]: under setting [1], the inhibitory constant (Ki) was 28.7 nM.

As for `CC(=O)N(C)C1CCN(CCC(C)(C(=O)N(C)Cc2ccc(C)cc2)c2ccc(Cl)c(Cl)c2)CC1` (centres unmarked) [Example 107, 4-[4-(Acetyl-methyl-amino)-piperidin-1-yl]-2-(3,4-dichloro-phenyl)-2,N-dimethyl-N-(4-methyl-benzyl)-butyramide], the Ki under setting [1] stood at 10.6 nM.

`CN(Cc1ccc(Cl)c(Cl)c1)C(=O)C(C)(CCN1CCC(N2CCCC2=O)CC1)c1ccc(Cl)c(Cl)c1` (centres unmarked) [Example 82, N-(3,4-Dichloro-benzyl)-2-(3,4-dichloro-phenyl)-2,N-dimethyl-4-[4-(2-oxo-pyrrolidin-1-yl)-piperidin-1-yl]-butyramide]: the Ki under setting [1] was determined as 1.2 nM and the Ki under setting [2] turned out to be 1.2 nM.

In the case of `CC(=O)N(C)C1CCN(CCC(C)(C(=O)N(C)Cc2ccc(F)c(C(F)(F)F)c2)c2ccc(Cl)c(Cl)c2)CC1` (single isomer, unassigned) [Example 122, (R or S)-4-[4-(Acetyl-methyl-amino)-piperidin-1-yl]-2-(3,4-dichloro-phenyl)-N-(4-fluoro-3-trifluoromethyl-benzyl)-2,N-dimethyl-butyramide], the Ki is 1.5 nM under setting [1] and 1.5 nM under setting [2].

With `CCN(C1CCN(CCC(C)(C(=O)N(C)Cc2ccccc2Cl)c2ccc(Cl)c(Cl)c2)CC1)S(C)(=O)=O` (centres unmarked) [Example 78, N-(2-Chloro-benzyl)-2-(3,4-dichloro-phenyl)-4-[4-(ethyl-methanesulfonyl-amino)-piperidin-1-yl]-2,N-dimethyl-butyramide], the inhibitory constant (Ki) was determined as 3.6 nM under setting [1] and 3.6 nM under setting [2].

In the case of `CC(=O)NC1CCN(CCC(C)(C(=O)N[C@H](CO)c2ccc(Cl)c(Cl)c2)c2ccc(Cl)c(Cl)c2)CC1` (single isomer, unassigned; diastereoisomer 2) [Example 159], the Ki under setting [1] came out at 258 nM.

Turning to `CN(Cc1ccccc1Cl)C(=O)C(C)(CCN1CCC(NS(C)(=O)=O)CC1)c1ccc(Cl)c(Cl)c1` (centres unmarked) [Example 18, N-(2-Chloro-benzyl)-2-(3,4-dichloro-phenyl)-4-(4-methanesulfonyl-amino-piperidin-1-yl)-2,N-dimethyl-butyramide], under setting [1], the Ki came to 33.3 nM.

`CN(Cc1ccc(C(F)(F)F)c(F)c1)C(=O)C(C)(CCN1CCC(NS(C)(=O)=O)CC1)c1ccc(Cl)c(Cl)c1` (centres unmarked) [Example 9, 2-(3,4-Dichloro-phenyl)-N-(3-fluoro-4-trifluoromethyl-benzyl)-4-(4-methanesulfonyl-amino-piperidin-1-yl)-2,N-dimethyl-butyramide]: the Ki under setting [1] was 30 nM.

As to `CC(=O)N(C)C1CCN(CCC(C)(C(=O)N[C@H](CO)c2ccccc2)c2ccc(Cl)c(Cl)c2)CC1` (stereo partly drawn) [Example 133, 4-[4-(Acetyl-methyl-amino)-piperidin-1-yl]-2-(3,4-dichloro-phenyl)-N-((S)-2-hydroxy-1-phenyl-ethyl)-2-methyl-butyramide], the Ki under setting [1] was 526 nM.

Take `CC(=O)N(C)C1CCN(CCC(C)(C(=O)NC(C)c2ccc(F)c(C(F)(F)F)c2)c2ccc(Cl)c(Cl)c2)CC1` (centres unmarked) [Example 132, 4-[4-(Acetyl-methyl-amino)-piperidin-1-yl]-2-(3,4-dichloro-phenyl)-N-[1-(4-fluoro-3-trifluoromethyl-phenyl)-ethyl]-2-methyl-butyramide]: the Ki under setting [1] came to 46.2 nM.

For the compound `CC(C)(NC(=O)C(C)(CCN1CCC(N2CCCC2=O)CC1)c1ccc(Cl)c(Cl)c1)c1ccccc1` (centres unmarked) [Example 92, 2-(3,4-Dichloro-phenyl)-2-methyl-N-(1-methyl-1-phenyl-ethyl)-4-[4-(2-oxo-pyrrolidin-1-yl)-piperidin-1-yl]-butyramide], the Ki under setting [1] was found to be 991 nM.

Regarding `CC(CCN1CCC(NS(C)(=O)=O)CC1)(C(=O)NCc1cc(C(F)(F)F)ccc1F)c1ccc(Cl)c(Cl)c1` (centres unmarked) [Example 15, 2-(3,4-Dichloro-phenyl)-N-(2-fluoro-5-trifluoromethyl-benzyl)-4-(4-methanesulfonyl-amino-piperidin-1-yl)-2-methyl-butyramide], the Ki under setting [1] was 166 nM.

Take `CC(=O)N(C1CC1)C1CCN(CCC(C)(C(=O)N[C@H](CO)c2ccc(Cl)c(Cl)c2)c2ccc(Cl)c(Cl)c2)CC1` (single isomer, unassigned; diastereoisomer 2) [Example 145, 4-[4-(Acetyl-cyclopropyl-amino)-piperidin-1-yl]-2-(3,4-dichloro-phenyl)-N-[1-(3,4-dichloro-phenyl)-2-hydroxy-ethyl]-2-methyl-butyramide (diastereoisomer 2)]: the inhibition constant (Ki) under setting [1] was found to be 50.2 nM.

On to `CC(=O)N(C)C1CCN(CCC(C)(C(=O)N(C)Cc2cccc(Cl)c2)c2ccc(Cl)c(Cl)c2)CC1` (centres unmarked) [Example 105, 4-[4-(Acetyl-methyl-amino)-piperidin-1-yl]-N-(3-chloro-benzyl)-2-(3,4-dichloro-phenyl)-2,N-dimethyl-butyramide], for which the Ki under setting [1] came to 8.7 nM and the Ki under setting [2] was found to be 8.7 nM.

`CC(NC(=O)C(C)(CCN1CCC(NS(C)(=O)=O)CC1)c1ccc(Cl)c(Cl)c1)c1ccc(Cl)c(Cl)c1` (centres unmarked) [Example 19, 2-(3,4-Dichloro-phenyl)-N-[1-(3,4-dichloro-phenyl)-ethyl]-4-(4-methanesulfonyl-amino-piperidin-1-yl)-2-methyl-butyramide]: the Ki under setting [1] was found to be 59.9 nM.

For `CN(Cc1ccc(Cl)cc1)C(=O)C(C)(CCN1CCC(N2CCCC2=O)CC1)c1ccc(Cl)c(Cl)c1` (centres unmarked) [Example 84, N-(4-Chloro-benzyl)-2-(3,4-dichloro-phenyl)-2,N-dimethyl-4-[4-(2-oxo-pyrrolidin 1-yl)-piperidin-1-yl]-butyramide], the Ki by setting is: under setting [1], 2.1 nM; under setting [2], 2.1 nM.

What is called Ki is the equilibrium dissociation constant of an inhibitor or competing ligand from its target.
